The target of one assay is PDK1 (Homo sapiens (Human), UniProt O15530). Briefly: PDK1 kinase assay (coupled PDK1/AKT/FAM-crosstide assay, IMAP fluorescence polarization). The format is biochemical. The method in brief:
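Inhibition is derived by 4-parameter fitting of ΔmP from an IMAP fluorescence polarization read of FAM-crosstide (100 nM) phosphorylation. The cascade ran 30 min at 25 °C with 40 μM ATP, using insect-cell GST-PDK1 51-359 (0.75 nM) driving 10 nM unphosphorylated AKT2 140-467-PIFtide fusion.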
Background: Fluorescence polarisation rises when a labelled molecule tumbles more slowly, as on binding a larger partner.

Assay [1] has as its system phospho-akt (Thr308) in PC-3 cells. Nature of the assay: Inhibition of phospho-akt (Thr308) in PC-3 cells, MSD phospho-akt 308 ELISA kit. To be noted: Homo sapiens, 2 hours, no serum, read-out: EC50. Format: cell-based. Summed up: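 PC-3 cells (15,000/well, overnight in 10% FBS medium) treated 2 h with three-fold diluted compounds in serum-free medium; DMSO high and 5 μM wortmannin low controls. Lysates captured on BSA-blocked MSD plates overnight at 4 °C, then 1 h antibody detection at RT; phospho-Akt Thr308 read by MSD electrochemiluminescence.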
For orientation: ELISA stands for enzyme-linked immunosorbent assay.

The mark [2] stands for this setting: inhibition of phospo-PDK1 in vitro.
[3] abbreviates: inhibition of P308 Akt in PC-3 cells, MSD.
Where [4] appears, read: inhibition of P308 Akt in PC-3 cells using MSD.
Setting [5] is: PC-3, 2 h, inhibition of P308 Akt in PC-3 cells, MSD.

pEC50, pIC50: −log10 of the molar value. Where a name gives a salt, the structure may show the parent alone. Read-outs that look alike come from different tables or passages of the source.

Sequence of PDK1 (O15530 51-359): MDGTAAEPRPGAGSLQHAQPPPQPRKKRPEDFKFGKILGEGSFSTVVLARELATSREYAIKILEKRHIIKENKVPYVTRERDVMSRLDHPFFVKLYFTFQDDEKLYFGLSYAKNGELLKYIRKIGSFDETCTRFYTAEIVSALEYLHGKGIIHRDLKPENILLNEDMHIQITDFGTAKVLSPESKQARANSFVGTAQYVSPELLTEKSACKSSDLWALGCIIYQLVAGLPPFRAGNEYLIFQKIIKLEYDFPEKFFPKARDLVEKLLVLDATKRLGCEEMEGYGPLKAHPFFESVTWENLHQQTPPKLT

As a reminder, the pIC50 is −log10 of the IC50, conventionally taken in molar units. Usually pEC50 stands for the negative decadic logarithm of the EC50, by convention in mol/L. Consider `Nc1ncnc2ccc(-c3ccc(CNc4ncccc4C(=O)NCc4ccc(F)c(F)c4)s3)cc12` [Example 4.4, 2-(((5-(4-aminoquinazolin-6-yl)thiophen-2-yl)methyl)amino)-N-(3,4-difluorobenzyl)nicotinamide], for which, at PDK1 (setting [2]), the pIC50 was greater than 7.00. The pEC50 in assay [1] (setting [3]) is greater than 6.00.
`O=C(NCc1ccc(F)c(F)c1)c1cccnc1NCCOc1ccc2[nH]c(=O)[nH]c2c1` [Example 16.2, N-(3,4-difluorobenzyl)-2-(2-(2-oxo-2,3-dihydro-1H-benzo[d]imidazol-5-yloxy)-ethylamino)nicotinamide] had a pIC50 on PDK1 (setting [2]) greater than 7.00. For the same compound, in assay [1] (setting [3]), the pEC50 was 5.00 to 6.00.
`N#Cc1cnc(NCc2ccc(-c3c[nH]c4ncnc(N)c34)cc2)c(-c2ncco2)c1` [Example 43, 6-(4-(4-amino-7H-pyrrolo[2,3-d]pyrimidin-5-yl)benzylamino)-5-(oxazol-2-yl)nicotinonitrile] had a pIC50 at PDK1 (inhibition of PDK1 in vitro) of 5.30 to 6.00. For the same compound, the pEC50 in assay [1] (setting [4]) is 5.00 to 6.00.
Consider `CCc1nc(C)c(/C=C2\C(=O)Nc3cc(/C=C/CNc4ncccc4C(=O)NCc4ccc(F)c(F)c4)ccc32)[nH]1` [Example 15.11, N-(3,4-Difluoro-benzyl)-2-((E)-3-{3-[1-(2-ethyl-5-methyl-3H-imidazol-4-yl)-meth-(Z)-ylidene]-2-oxo-2,3-dihydro-1H-indol-6-yl}-allylamino)-nicotinamide], for which, on PDK1 (setting [2]), the pIC50 is greater than 7.00. Moreover, the pEC50 in assay [1] (setting [3]) was greater than 6.00.
`COCCCn1cc(-c2ccc(CNc3ncc(C#N)nc3C(=O)N[C@@H](C)c3ccc(F)c(F)c3)cc2)c2c(N)ncnc21` [Example 317, (S)-3-(4-(4-amino-7-(3-methoxypropyl)-7H-pyrrolo[2,3-d]pyrimidin-5-yl)benzylamino)-6-cyano-N-(1-(3,4-difluoro-phenyl)ethyl)pyrazine-2-carboxamide]: the pIC50 on PDK1 (inhibition of PDK1 in vitro) is greater than 7.00. The pEC50 in assay [1] (setting [4]) is greater than 6.00.
For `Nc1ncnc2ccc(-c3ccc(CNc4ncccc4C(=O)Nc4cccc5cccnc45)s3)cc12` [Example 3.32, 2-({[5-(4-aminoquinazolin-6-yl)thiophen-2-yl]methyl}amino)-N-(quinolin-8-yl)pyridine-3-carboxamide (TFA salt)], the pIC50 against PDK1 (setting [2]) is less than 5.30. The pEC50 in assay [1] (setting [3]) is less than 5.00.
Taken in the same sequence, the figures for `O=C(NCc1ccc(F)c(F)c1)c1cccnc1Nc1cccc(-c2cccc3c2CNC3=O)c1` [Example 17.1, N-(3,4-difluorobenzyl)-2-(3-(1-oxoisoindolin-4-yl)phenylamino)-nicotinamide] were 6.00 to 7.00 and less than 5.00.
Consider `O=C(NCc1ccc(F)c(F)c1)c1cccnc1NCc1ccc(-c2cnc3[nH]ncc3c2)cc1` [Example 2.35, 2-(4-(1H-pyrazolo[3,4-b]pyridin-5-yl)benzylamino)-N-(3,4-difluorobenzyl)nicotinamide], for which the pIC50 at PDK1 (setting [2]) is greater than 7.00. Besides, the pEC50 in assay [1] (setting [3]) is greater than 6.00.
As to `Nc1ncnc2ccc(-c3ccc(CNc4ncc(NC(=O)c5ccccc5)cc4C(=O)NCc4ccc(F)c(F)c4)s3)cc12` [Example 8.5.7, 2-({[5-(4-aminoquinazolin-6-yl)thiophen-2-yl]methyl}amino)-N-(3,4-difluorobenzyl)-5-[(phenylcarbonyl)amino] pyridine-3-carboxamide], the pIC50 at PDK1 (setting [2]) is 6.00 to 7.00. In addition, the pEC50 in assay [1] (setting [3]) was less than 5.00.
`Nc1ncnc2ccc(-c3ccc(CNc4nccc5ncn(Cc6ccc(F)c(F)c6)c(=O)c45)s3)cc12` [Ex. 7.8] gave a pIC50 against PDK1 (setting [2]) greater than 7.00. For the same compound, the pEC50 in assay [1] (setting [3]) was greater than 6.00.
With `C[C@H](NC(=O)c1cc(C#N)cnc1N[C@H](C)c1ccc(-c2cnc3[nH]nc(N)c3c2)cc1)c1ccc(F)cc1` [Example 423, 2-{(R)-1-[4-(3-Amino-1H-pyrazolo[3,4-b]pyridin-5-yl)-phenyl]-ethylamino}-5-cyano-N-[(S)-1-(4-fluoro-phenyl)-ethyl]-nicotinamide], the pIC50 against PDK1 (inhibition of PDK1 in vitro) was greater than 7.00. In addition, the pEC50 in assay [1] (setting [4]) is greater than 6.00.
Compound `Nc1n[nH]c2ncc(-c3ccc(CNc4ncc(C(F)(F)F)cc4C(=O)Nc4ccc(F)cc4F)cc3)cc12` [Example 291, 2-(4-(3-amino-1H-pyrazolo [3,4-b]pyridin-5-yl)benzylamino)-N-(2,4-difluorophenyl)-5-(trifluoromethyl)nicotinamide] showed a pIC50 against PDK1 (inhibition of PDK1 in vitro) greater than 7.00. Further, the pEC50 in assay [1] (setting [4]) is greater than 6.00.
`CN1CCN(S(=O)(=O)c2cnc(NCc3ccc(-c4ccc5ncnc(N)c5c4)s3)c(C(=O)NCc3ccc(F)c(F)c3)c2)CC1` [Example 8.6.10, 2-(((5-(4-aminoquinazolin-6-yl)thiophen-2-yl)methyl)amino)-N-(3,4-difluorobenzyl)-5-(4-methylpiperazin-1-ylsulfonyl)nicotinamide]: the pIC50 at PDK1 (setting [2]) is 6.00 to 7.00. The pEC50 in assay [1] (setting [5]) was 5.00 to 6.00.
Consider `C[C@H](NC(=O)c1cc(C#N)cnc1NCc1ccc(-c2cnc(N)c(C3=CCNCC3)n2)cc1)c1ccc(F)cc1` [Example 233, 2-{4-[5-Amino-6-(1,2,3,6-tetrahydro-pyridin-4-yl)-pyrazin-2-yl]-benzylamino}-5-cyano-N-[(S)-1-(4-fluoro-phenyl)-ethyl]-nicotinamide], for which the pIC50 at PDK1 (inhibition of PDK1 in vitro) was greater than 7.00. In assay [1] (setting [4]), the pEC50 was greater than 6.00.
In the same order, the values of `Cc1cc(-c2ccc(CNc3ncc(C#N)cc3C(=O)N[C@@H](C)c3ccc(F)cc3)cc2)cnc1N` [Example 104, (S)-2-(4-(6-amino-5-methylpyridin-3-yl)benzylamino)-5-cyano-N-(1-(4-fluorophenyl)ethyl)nicotinamide] are greater than 7.00 and greater than 6.00.
`Nc1n[nH]c2ncc(-c3ccc(CNc4ncc(C(F)(F)F)cc4C(=O)Nc4ccc(F)cc4)cc3)cc12` [Example 38, 2-[4-(3-Amino-1H-pyrazolo[3,4-b]pyridin-5-yl)-benzylamino]-N-(4-fluoro-phenyl)-5-trifluoromethyl-nicotinamide]: on PDK1 (setting [2]), the pIC50 was greater than 7.00. Moreover, the pEC50 in assay [1] (setting [3]) was greater than 6.00.
On to `C[C@H](NC(=O)c1cc(C#N)cnc1NCc1ccc(-c2cccc3n[nH]c(=O)n23)cc1)c1ccc(F)cc1` [Example 144, (S)-5-cyano-N-(1-(4-fluorophenyl)ethyl)-2-(4-(3-oxo-2,3-dihydro-[1,2,4]triazolo[4,3-a]pyridin-5-yl)benzyl-amino)nicotinamide], for which, at PDK1 (inhibition of PDK1 in vitro), the pIC50 was less than 5.30. Besides, the pEC50 in assay [1] (setting [4]) is less than 5.00.
In the same order, the values of `C[C@H](NC(=O)c1cc(C#N)cnc1NCc1ccc(-c2ccn3ncnc(N)c23)cc1)c1ccc(F)cc1` [Example 174, 2-[4-(4-Amino-pyrrolo[2,1-f][1,2,4]triazin-5-yl)-benzylamino]-5-cyano-N-[(S)-1-(4-fluoro-phenyl)-ethyl]-nicotinamide] are greater than 7.00 and greater than 6.00.
Taken in the same sequence, the figures for `C[C@H](NC(=O)c1nc(C#N)cnc1N[C@H](C)c1ccc(-c2cnc3[nH]nc(N)c3c2)cc1)c1ccc(F)c(F)c1` [Example 42, 3-((R)-1-(4-(3-amino-1H-pyrazolo[3,4-b]pyridin-5-yl)phenyl)ethylamino)-6-cyano-N—((S)-1-(3,4-difluorophenyl)ethyl)pyrazine-2-carboxamide] were greater than 7.00 and greater than 6.00.
On PDK1 (setting [2]), `C[C@H](NC(=O)c1cccnc1NCc1ccc(-c2ccc3ncc(N)nc3c2)s1)c1ccc(F)c(F)c1` [Example 4.30, (S)-2-(((5-(3-aminoquinoxalin-6-yl)thiophen-2-yl)methyl)amino)-N-(1-(3,4-difluorophenyl)ethyl) nicotinamide] gave a pIC50 of 6.00 to 7.00. Also, the pEC50 in assay [1] (setting [5]) is 5.00 to 6.00.

Source of the values: patent US10030016B2 (Sunesis Pharmaceuticals, Inc., priority 2009, dated 2018).
